Legend:
[1] = tested on: Calf thymus DNA; assay: Apparent binding constant to calf thymus DNA (CT-DNA); format: nucleic-acid assay; conditions: Bos taurus
[2] = tested on: BGC-823; assay: In vitro antitumor activity against humanBGC-823 tumor cell line; format: functional, cell-based; conditions: Homo sapiens
[3] = tested on: HL-60; assay: In vitro antitumor activity against humanHL-60 tumor cell line; format: functional, cell-based; conditions: Homo sapiens
[4] = tested on: MDA-MB-435; assay: In vitro antitumor activity against human MDA-MB-435 tumor cell line; format: functional, cell-based
[5] = In vitro antitumor activity against human PC-3MIE8 tumor cell line; format: functional
[6] = tested on: Nucleic Acid; assay: Thermal denaturation alteration for calf thymus DNA (CT-DNA) binding to the compound was determined; format: functional; conditions: Bos taurus

| SMILES | Kb [1] | IC50 [2] [nM] | IC50 [3] [nM] | IC50 [4] [nM] | IC50 [5] [nM] | ΔTm [6] [°C] |
| --- | --- | --- | --- | --- | --- | --- |
| Cc1c(N)nc([C@H](CC(N)=O)NC[C@H](N)C(N)=O)nc1C(=O)N[C@H](C(=O)N[C@H](C)[C@@H](O)[C@H](C)C(=O)N[C@H](C(=O)NCCc1nc(-c2nc(C(=O)NCCCNCCCCNC(=O)[C@@H](N)C(C)C)cs2)cs1)[C@@H](C)O)[C@@H](O[C@@H]1O[C@@H](CO)[C@@H](O)[C@H](O)[C@@H]1O[C@H]1O[C@H](CO)[C@@H](O)[C@H](OC(N)=O)[C@@H]1O)c1c[nH]cn1 | 325000 | 1390 | 660 | 130 | 1830 | 1.9 |
| Cc1c(N)nc([C@H](CC(N)=O)NC[C@H](N)C(N)=O)nc1C(=O)N[C@H](C(=O)N[C@H](C)[C@@H](O)[C@H](C)C(=O)N[C@H](C(=O)NCCc1nc(-c2nc(C(=O)NCCCNCCCCNC(=O)[C@H](CCCCN)NC(=O)[C@H](N)C(C)C)cs2)cs1)[C@@H](C)O)[C@@H](O[C@@H]1O[C@@H](CO)[C@@H](O)[C@H](O)[C@@H]1O[C@H]1O[C@H](CO)[C@@H](O)[C@H](OC(N)=O)[C@@H]1O)c1c[nH]cn1 | 408000 | 1170 | 740 | 100 | 1910 | 5.9 |
| Cc1c(N)nc([C@H](CC(N)=O)NC[C@H](N)C(N)=O)nc1C(=O)N[C@H](C(=O)N[C@H](C)[C@@H](O)[C@H](C)C(=O)N[C@H](C(=O)NCCc1nc(-c2nc(C(=O)NCCCNCCCCNC(=O)[C@H](CC(C)C)NC(=O)[C@H](N)C(C)C)cs2)cs1)[C@@H](C)O)[C@@H](O[C@@H]1O[C@@H](CO)[C@@H](O)[C@H](O)[C@@H]1O[C@H]1O[C@H](CO)[C@@H](O)[C@H](OC(N)=O)[C@@H]1O)c1c[nH]cn1 | 260000 | 930 | 270 | 90 | 1180 | 0.5 |
| Cc1c(N)nc([C@H](CC(N)=O)NC[C@H](N)C(N)=O)nc1C(=O)N[C@H](C(=O)N[C@H](C)[C@@H](O)[C@H](C)C(=O)N[C@H](C(=O)NCCc1nc(-c2nc(C(=O)NCCCNCCCCN)cs2)cs1)[C@@H](C)O)[C@@H](O[C@@H]1O[C@@H](CO)[C@@H](O)[C@@H](O)[C@@H]1O[C@H]1O[C@H](CO)[C@@H](O)[C@H](OC(N)=O)[C@@H]1O)c1c[nH]cn1 | 457000 | 1250 | 250 | 1640 | 1480 | 2.9 |
| Cc1c(N)nc([C@H](CC(N)=O)NC[C@H](N)C(N)=O)nc1C(=O)N[C@H](C(=O)N[C@H](C)[C@@H](O)[C@H](C)C(=O)N[C@H](C(=O)NCCc1nc(-c2nc(C(=O)NCCCNCCCCNC(=O)[C@H](N)CCCCN)cs2)cs1)[C@@H](C)O)[C@@H](O[C@@H]1O[C@@H](CO)[C@@H](O)[C@H](O)[C@@H]1O[C@H]1O[C@H](CO)[C@@H](O)[C@H](OC(N)=O)[C@@H]1O)c1c[nH]cn1 | 559000 | 920 | 510 | 100 | 1080 | 8.4 |
| Cc1c(N)nc([C@H](CC(N)=O)NC[C@H](N)C(N)=O)nc1C(=O)N[C@H](C(=O)N[C@H](C)[C@@H](O)[C@H](C)C(=O)N[C@H](C(=O)NCCc1nc(-c2nc(C(=O)NCCCNCCCCNC(=O)[C@H](CCCCN)NC(=O)[C@@H](N)C(C)C)cs2)cs1)[C@@H](C)O)[C@@H](O[C@@H]1O[C@@H](CO)[C@@H](O)[C@H](O)[C@@H]1O[C@H]1O[C@H](CO)[C@@H](O)[C@H](OC(N)=O)[C@@H]1O)c1c[nH]cn1 | 463000 | 1010 | 980 | 220 | 3320 | 7 |

Stronger by IC50 [2], values ahead:

| Kb [1] | IC50 [2] [nM] | IC50 [3] [nM] | IC50 [4] [nM] | IC50 [5] [nM] | SMILES | ΔTm [6] [°C] |
| --- | --- | --- | --- | --- | --- | --- |
| 249000 | 800 | 310 | 130 | 800 | Cc1c(N)nc([C@H](CC(N)=O)NC[C@H](N)C(N)=O)nc1C(=O)N[C@H](C(=O)N[C@H](C)[C@@H](O)[C@H](C)C(=O)N[C@H](C(=O)NCCc1nc(-c2nc(C(=O)NCCCNCCCCNC(=O)[C@H](N)C(C)C)cs2)cs1)[C@@H](C)O)[C@@H](O[C@@H]1O[C@@H](CO)[C@@H](O)[C@H](O)[C@@H]1O[C@H]1O[C@H](CO)[C@@H](O)[C@H](OC(N)=O)[C@@H]1O)c1c[nH]cn1 | 1.1 |
| 496000 | 600 | 70 | 70 | 1140 | Cc1c(N)nc([C@H](CC(N)=O)NC[C@H](N)C(N)=O)nc1C(=O)N[C@H](C(=O)N[C@H](C)[C@@H](O)[C@H](C)C(=O)N[C@H](C(=O)NCCc1nc(-c2nc(C(=O)NCCCNCCCCNC(=O)[C@H](CCCCN)NC(=O)[C@@H](CC(C)C)NC(=O)[C@@H](N)C(C)C)cs2)cs1)[C@@H](C)O)[C@@H](O[C@@H]1O[C@@H](CO)[C@@H](O)[C@H](O)[C@@H]1O[C@H]1O[C@H](CO)[C@@H](O)[C@H](OC(N)=O)[C@@H]1O)c1c[nH]cn1 | 4.7 |
| 423000 | 870 | 630 | 320 | 1320 | Cc1c(N)nc([C@H](CC(N)=O)NC[C@H](N)C(N)=O)nc1C(=O)N[C@H](C(=O)N[C@H](C)[C@@H](O)[C@H](C)C(=O)N[C@H](C(=O)NCCc1nc(-c2nc(C(=O)NCCCNCCCCNC(=O)[C@H](CC(C)C)NC(=O)[C@@H](N)C(C)C)cs2)cs1)[C@@H](C)O)[C@@H](O[C@@H]1O[C@@H](CO)[C@@H](O)[C@@H](O)[C@@H]1O[C@H]1O[C@H](CO)[C@@H](O)[C@H](OC(N)=O)[C@@H]1O)c1c[nH]cn1 | 1.8 |
| 283000 | 730 | 370 | 170 | 1270 | Cc1c(N)nc([C@H](CC(N)=O)NC[C@H](N)C(N)=O)nc1C(=O)N[C@H](C(=O)N[C@H](C)[C@@H](O)[C@H](C)C(=O)N[C@H](C(=O)NCCc1nc(-c2nc(C(=O)NCCCNCCCCNC(=O)[C@H](N)CC(C)C)cs2)cs1)[C@@H](C)O)[C@@H](O[C@@H]1O[C@@H](CO)[C@@H](O)[C@H](O)[C@@H]1O[C@H]1O[C@H](CO)[C@@H](O)[C@H](OC(N)=O)[C@@H]1O)c1c[nH]cn1 | 1.5 |

Source: ChEMBL document CHEMBL1140354, “Novel peptide derivatives of bleomycin A5: synthesis, antitumor activity and interaction with DNA” (Bioorg Med Chem Lett, 2005)
